Assay results reported in the supplement of paper PMC13207355.
Structures can show the parent of a compound that is named as a salt.

Assays:
Details in all cases: exposure time: 72 h
E28 [1] = patient-derived glioblastoma stem cells of classical subtype; assay: surviving fraction (nuclei count normalised to DMSO); higher = more cells surviving (less toxic)
E57 [2] = patient-derived glioblastoma stem cells of mesenchymal subtype; assay: as above
E31 [3] = patient-derived glioblastoma stem cells of proneural subtype; assay: as above
E34 [4] = patient-derived glioblastoma stem cells of proneural subtype; assay: as above
E13 [5] = patient-derived glioblastoma stem cells of classical subtype; assay: as above
E21 [6] = patient-derived glioblastoma stem cells of mesenchymal subtype; assay: as above
FT3469 [7] = normal neural stem cell line; assay: as above
E28 [8] = assay: phenotypic distance (Euclidean, principal components) from DMSO controls (arbitrary units); higher = stronger morphological change
E57 [9] = assay: as above
E31 [10] = assay: as above
E34 [11] = assay: as above
E13 [12] = assay: as above
E21 [13] = assay: as above
FT3469 [14] = assay: as above
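Wherever phenotypic distance (Euclidean, principal components) from DMSO controls is given: cell Painting imaging in 384-well plates, CellProfiler features reduced to at least 20 principal components, Euclidean distance versus same-plate DMSO vehicle wells (0.1% v/v), median over six images per well.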
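Wherever surviving fraction (nuclei count normalised to DMSO) is given: nuclei counted by high-content imaging of Hoechst-stained cells in laminin-coated 384-well plates, relative to 0.1% DMSO vehicle wells, with staurosporine as cell-death control.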

CNCCc1ccccn1 [Betahistine mesylate]
Details	phenotypic distance	surviving fraction
E13 [5], 4.1 nM	–	0.978
E13 [5], 12.3 nM	–	0.933
E13 [5], 37 nM	–	1.01
E13 [5], 111.1 nM	–	1.13
E13 [5], 333.3 nM	–	0.991
E13 [5], 1000 nM	–	1.05
E13 [5], 3000 nM	–	1.08
E13 [12], 4.1 nM	0.901	–
E13 [12], 12.3 nM	0.868	–
E13 [12], 37 nM	1.14	–
E13 [12], 111.1 nM	0.834	–
E13 [12], 333.3 nM	0.663	–
E13 [12], 1000 nM	0.868	–
E13 [12], 3000 nM	0.634	–
E21 [6], 4.1 nM	–	1.01
E21 [6], 12.3 nM	–	1.06
E21 [6], 37 nM	–	0.973
E21 [6], 111.1 nM	–	0.957
E21 [6], 333.3 nM	–	1.08
E21 [6], 1000 nM	–	1.01
E21 [6], 3000 nM	–	1.17
E21 [13], 4.1 nM	1.28	–
E21 [13], 12.3 nM	1.7	–
E21 [13], 37 nM	0.97	–
E21 [13], 111.1 nM	1.14	–
E21 [13], 333.3 nM	1.32	–
E21 [13], 1000 nM	1.57	–
E21 [13], 3000 nM	1.61	–
E28 [1], 4.1 nM	–	0.99
E28 [1], 12.3 nM	–	1.1
E28 [1], 37 nM	–	1.08
E28 [1], 111.1 nM	–	0.858
E28 [1], 333.3 nM	–	1.04
E28 [1], 1000 nM	–	1.1
E28 [1], 3000 nM	–	1.2
E28 [8], 4.1 nM	0.708	–
E28 [8], 12.3 nM	1.01	–
E28 [8], 37 nM	0.524	–
E28 [8], 111.1 nM	0.891	–
E28 [8], 333.3 nM	0.512	–
E28 [8], 1000 nM	0.607	–
E28 [8], 3000 nM	0.451	–
E31 [3], 4.1 nM	–	0.967
E31 [3], 12.3 nM	–	1.11
E31 [3], 37 nM	–	0.864
E31 [3], 111.1 nM	–	1.01
E31 [3], 333.3 nM	–	0.976
E31 [3], 1000 nM	–	1.09
E31 [3], 3000 nM	–	1.1
E31 [10], 4.1 nM	0.624	–
E31 [10], 12.3 nM	0.892	–
E31 [10], 37 nM	0.655	–
E31 [10], 111.1 nM	0.749	–
E31 [10], 333.3 nM	0.468	–
E31 [10], 1000 nM	0.554	–
E31 [10], 3000 nM	1.08	–
E34 [4], 4.1 nM	–	0.797
E34 [4], 12.3 nM	–	0.969
E34 [4], 37 nM	–	0.928
E34 [4], 111.1 nM	–	1.16
E34 [4], 333.3 nM	–	1.11
E34 [4], 1000 nM	–	1.1
E34 [4], 3000 nM	–	0.927
E34 [11], 4.1 nM	0.696	–
E34 [11], 12.3 nM	0.75	–
E34 [11], 37 nM	0.843	–
E34 [11], 111.1 nM	1.03	–
E34 [11], 333.3 nM	0.558	–
E34 [11], 1000 nM	0.851	–
E34 [11], 3000 nM	1.25	–
E57 [2], 4.1 nM	–	0.99
E57 [2], 12.3 nM	–	0.95
E57 [2], 37 nM	–	0.987
E57 [2], 111.1 nM	–	1.04
E57 [2], 333.3 nM	–	1.01
E57 [2], 1000 nM	–	0.983
E57 [2], 3000 nM	–	0.999
E57 [9], 4.1 nM	4.51	–
E57 [9], 12.3 nM	1.49	–
E57 [9], 37 nM	1.15	–
E57 [9], 111.1 nM	1.23	–
E57 [9], 333.3 nM	0.721	–
E57 [9], 1000 nM	0.773	–
E57 [9], 3000 nM	0.773	–
FT3469 [7], 4.1 nM	–	0.941
FT3469 [7], 12.3 nM	–	1.08
FT3469 [7], 37 nM	–	1.16
FT3469 [7], 111.1 nM	–	0.935
FT3469 [7], 333.3 nM	–	1.23
FT3469 [7], 1000 nM	–	1.18
FT3469 [7], 3000 nM	–	1.19
FT3469 [14], 4.1 nM	0.827	–
FT3469 [14], 12.3 nM	0.751	–
FT3469 [14], 37 nM	0.948	–
FT3469 [14], 111.1 nM	0.634	–
FT3469 [14], 333.3 nM	1.15	–
FT3469 [14], 1000 nM	0.929	–
FT3469 [14], 3000 nM	0.86	–

CC(C)C[C@H](NC(=O)[C@H](Cc1ccccc1)NC(=O)c1cnccn1)B(O)O [Bortezomib]
Details	phenotypic distance	surviving fraction
E13 [5], 4.11523 nM	–	0.00185
E13 [5], 12.34567901 nM	–	0.551
E13 [5], 37.037 nM	–	0.000925
E13 [5], 111.1111111 nM	–	0.0074
E13 [5], 333.333 nM	–	0.000925
E13 [5], 1000 nM	–	0.00185
E13 [5], 3000 nM	–	0
E13 [12], 4.11523 nM	16.9	–
E13 [12], 12.34567901 nM	2.3	–
E13 [12], 37.037 nM	17.1	–
E13 [12], 111.1111111 nM	12	–
E13 [12], 333.333 nM	14.2	–
E13 [12], 1000 nM	13.5	–
E13 [12], 3000 nM	21.9	–
E21 [6], 4.11523 nM	–	0.00595
E21 [6], 12.34567901 nM	–	0.00198
E21 [6], 37.037 nM	–	0.000991
E21 [6], 111.1111111 nM	–	0.000991
E21 [6], 333.333 nM	–	0.00297
E21 [6], 1000 nM	–	0.00198
E21 [6], 3000 nM	–	0
E21 [13], 4.11523 nM	10.7	–
E21 [13], 12.34567901 nM	17.6	–
E21 [13], 37.037 nM	18.1	–
E21 [13], 111.1111111 nM	23.9	–
E21 [13], 333.333 nM	14.3	–
E21 [13], 1000 nM	18.7	–
E21 [13], 3000 nM	23.7	–
E28 [1], 4.11523 nM	–	0.0619
E28 [1], 12.34567901 nM	–	0.0854
E28 [1], 37.037 nM	–	0.0576
E28 [1], 111.1111111 nM	–	0.0896
E28 [1], 333.333 nM	–	0.0747
E28 [1], 1000 nM	–	0.0576
E28 [1], 3000 nM	–	0.105
E28 [8], 4.11523 nM	5.69	–
E28 [8], 12.34567901 nM	4.88	–
E28 [8], 37.037 nM	6.77	–
E28 [8], 111.1111111 nM	5.66	–
E28 [8], 333.333 nM	5.33	–
E28 [8], 1000 nM	6.17	–
E28 [8], 3000 nM	5.47	–
E31 [3], 4.11523 nM	–	0.00325
E31 [3], 12.34567901 nM	–	0.0114
E31 [3], 37.037 nM	–	0.00651
E31 [3], 111.1111111 nM	–	0
E31 [3], 333.333 nM	–	0.00163
E31 [3], 1000 nM	–	0
E31 [3], 3000 nM	–	0.00163
E31 [10], 4.11523 nM	8.53	–
E31 [10], 12.34567901 nM	10.1	–
E31 [10], 37.037 nM	10.2	–
E31 [10], 111.1111111 nM	21.4	–
E31 [10], 333.333 nM	11.7	–
E31 [10], 1000 nM	17.1	–
E31 [10], 3000 nM	12.6	–
E34 [4], 4.11523 nM	–	0.0594
E34 [4], 12.34567901 nM	–	0.0507
E34 [4], 37.037 nM	–	0.0385
E34 [4], 111.1111111 nM	–	0.0332
E34 [4], 333.333 nM	–	0.035
E34 [4], 1000 nM	–	0.0227
E34 [4], 3000 nM	–	0.0385
E34 [11], 4.11523 nM	10.2	–
E34 [11], 12.34567901 nM	9.58	–
E34 [11], 37.037 nM	13.4	–
E34 [11], 111.1111111 nM	13.5	–
E34 [11], 333.333 nM	13.9	–
E34 [11], 1000 nM	12.6	–
E34 [11], 3000 nM	12.6	–
E57 [2], 4.11523 nM	–	0.00967
E57 [2], 12.34567901 nM	–	0.00153
E57 [2], 37.037 nM	–	0.00662
E57 [2], 111.1111111 nM	–	0.00611
E57 [2], 333.333 nM	–	0.00255
E57 [2], 1000 nM	–	0.00305
E57 [2], 3000 nM	–	0.00611
E57 [9], 4.11523 nM	10.4	–
E57 [9], 12.34567901 nM	15.6	–
E57 [9], 37.037 nM	11.2	–
E57 [9], 111.1111111 nM	10.8	–
E57 [9], 333.333 nM	12.5	–
E57 [9], 1000 nM	12.2	–
E57 [9], 3000 nM	9.88	–
FT3469 [7], 4.11523 nM	–	0.207
FT3469 [7], 12.34567901 nM	–	0.193
FT3469 [7], 37.037 nM	–	0.233
FT3469 [7], 111.1111111 nM	–	0.161
FT3469 [7], 333.333 nM	–	0.158
FT3469 [7], 1000 nM	–	0.121
FT3469 [7], 3000 nM	–	0.104
FT3469 [14], 4.11523 nM	5.9	–
FT3469 [14], 12.34567901 nM	7.61	–
FT3469 [14], 37.037 nM	8.16	–
FT3469 [14], 111.1111111 nM	8	–
FT3469 [14], 333.333 nM	7.22	–
FT3469 [14], 1000 nM	8.26	–
FT3469 [14], 3000 nM	6	–
